Drawing on patent US9481676B2, “Azepino[4,5-B]indoles and methods of use” (Medivation Technologies, Inc., priority 2008, dated 2016), this text covers inhibition for 10 molecules.

Each structure is given as a SMILES string.

Experiment [1] deals with T1, human recombinant serotonin (5-Hydroxytryptamine) 5-HT2C receptor (Homo sapiens, UniProt P28335).
T1 construct: expressed in transfected cells; host or cells: CHO-K1 cells
T1 sequence (P28335 33-458): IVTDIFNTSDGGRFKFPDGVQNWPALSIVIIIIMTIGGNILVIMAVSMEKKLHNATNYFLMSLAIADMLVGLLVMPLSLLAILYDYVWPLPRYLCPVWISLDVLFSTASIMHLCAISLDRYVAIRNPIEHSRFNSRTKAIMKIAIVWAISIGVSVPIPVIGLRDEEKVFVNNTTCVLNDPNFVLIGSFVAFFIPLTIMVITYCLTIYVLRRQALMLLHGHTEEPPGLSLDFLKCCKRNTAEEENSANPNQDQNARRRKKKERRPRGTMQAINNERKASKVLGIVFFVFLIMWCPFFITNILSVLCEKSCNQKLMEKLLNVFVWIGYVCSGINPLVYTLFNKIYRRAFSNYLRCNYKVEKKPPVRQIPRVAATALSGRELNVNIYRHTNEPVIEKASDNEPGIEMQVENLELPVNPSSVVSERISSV
Description: Serotonin 5-HT2C radioligand binding ([3H]Mesulergine). The conditions noted are these: compound at 1 μM; read-out: Serotonin (1 μM) 5-HT2C, percent inhibition of specific binding. Summed up:
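Membranes from CHO-K1 cells expressing human 5-HT2C, incubated with 1 nM [3H]mesulergine for 60 min at 25 °C in 50 mM Tris-HCl pH 7.4 with ascorbic acid and pargyline.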

Experiment [2] deals with T2, human recombinant adrenergic α1D receptor (Homo sapiens, UniProt P25100).
T2 construct: expressed in transfected cells; host or cells: HEK-293 cells
T2 sequence (P25100 1-572): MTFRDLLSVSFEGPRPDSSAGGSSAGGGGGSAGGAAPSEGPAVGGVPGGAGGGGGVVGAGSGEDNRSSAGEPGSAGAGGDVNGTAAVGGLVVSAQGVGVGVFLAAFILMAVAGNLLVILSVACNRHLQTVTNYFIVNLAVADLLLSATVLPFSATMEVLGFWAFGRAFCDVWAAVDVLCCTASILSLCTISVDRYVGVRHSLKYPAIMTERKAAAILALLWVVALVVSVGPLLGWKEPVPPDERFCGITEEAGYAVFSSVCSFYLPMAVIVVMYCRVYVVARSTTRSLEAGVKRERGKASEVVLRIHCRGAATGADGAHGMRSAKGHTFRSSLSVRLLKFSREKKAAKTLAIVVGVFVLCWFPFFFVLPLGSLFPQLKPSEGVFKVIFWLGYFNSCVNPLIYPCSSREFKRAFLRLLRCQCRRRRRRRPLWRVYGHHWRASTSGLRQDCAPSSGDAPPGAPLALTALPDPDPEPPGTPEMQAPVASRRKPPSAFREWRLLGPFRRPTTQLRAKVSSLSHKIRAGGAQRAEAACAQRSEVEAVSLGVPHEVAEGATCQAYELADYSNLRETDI
Description: Adrenergic alpha1D radioligand binding ([3H]Prozosin). The conditions noted are these: compound at 1 μM; read-out: Adrenergic (1 μM) α1D, percent inhibition of specific binding. In short, it runs like this:
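Membranes from HEK-293 cells expressing the human receptor in 50 mM Tris-HCl pH 7.4 were incubated 60 min at 25 °C with 0.6 nM [3H]prazosin. Nonspecific binding was defined with 10 μM phentolamine, and bound ligand measured by filtration.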

In experiment [3] the target is T3, human recombinant adrenergic α2B receptor (Homo sapiens, UniProt P18089).
T3 construct: expressed in transfected cells; host or cells: CHO-K1 cells
T3 sequence (P18089 1-450): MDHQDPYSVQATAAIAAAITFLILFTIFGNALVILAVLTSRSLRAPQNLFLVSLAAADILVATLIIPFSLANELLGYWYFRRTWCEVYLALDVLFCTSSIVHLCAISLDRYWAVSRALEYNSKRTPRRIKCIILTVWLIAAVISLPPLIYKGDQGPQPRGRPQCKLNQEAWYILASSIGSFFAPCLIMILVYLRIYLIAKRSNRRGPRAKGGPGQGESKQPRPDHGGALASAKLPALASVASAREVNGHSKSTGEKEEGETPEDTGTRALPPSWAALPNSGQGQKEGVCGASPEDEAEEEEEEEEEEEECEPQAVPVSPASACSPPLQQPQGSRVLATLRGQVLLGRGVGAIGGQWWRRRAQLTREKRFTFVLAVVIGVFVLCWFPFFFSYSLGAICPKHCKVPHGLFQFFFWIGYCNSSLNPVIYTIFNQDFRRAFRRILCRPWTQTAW
Description: Adrenergic alpha2B radioligand binding ([3H]Rauwolscine). The conditions noted are these: compound at 1 μM; read-out: Adrenergic (1 μM) α2B, percent inhibition of specific binding. In short, it runs like this: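 CHO-K1-expressed receptor in Tris-HCl pH 7.4 with MgCl2, EDTA, BSA, incubated 60 min at 25° C with 2.5 nM [3H]Rauwolscine; 10 μM prazosin defines non-specific binding.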

Broadly, the inhibition is the relative decrease from the control value, in per cent. For the molecule `Cc1ccc2c(c1)c1c(n2CC(C)(O)c2ccc(Cl)cc2)CCN(C)CC1` (stereo not drawn) [Compound No. 15, 2-(4-chlorophenyl)-1-(2,3,4,5-tetrahydro-3,9-dimethylazepino[4,5-b]indol-6(1H)-yl)propan-2-ol], the figures for the inhibition at 1 µM in experiment [1], in experiment [2] and in experiment [3] were 100%, 72% and 104%, respectively.
In the case of `CN1CCc2c(n(C#Cc3ccc(Cl)cc3)c3ccc(Cl)cc23)CC1` [Compound No. 282, 9-chloro-6-((4-chlorophenyl)ethynyl)-3-methyl-1,2,3,4,5,6-hexahydroazepino[4,5-b]indole], the inhibition at 1 µM is 103% in experiment [1], 67% in experiment [2] and 102% in experiment [3].
Taken in the same sequence, the figures for `COc1ccc(C(O)Cn2c3c(c4cc(Cl)ccc42)CCN(C)CC3)c(F)c1` (stereo not drawn) [Compound No. 49, 2-(9-chloro-2,3,4,5-tetrahydro-3-methylazepino[4,5-b]indol-6(1H)-yl)-1-(2-fluoro-4-methoxyphenyl) ethanol] were 98%, 71% and 106%.
Taken in the same sequence, the figures for `COc1ccc(C(O)Cn2c3c(c4cc(Cl)ccc42)CCN(C)CC3)cc1` (stereo not drawn) [Compound No. 47, 2-(9-chloro-2,3,4,5-tetrahydro-3-methylazepino[4,5-b]indol-6(1H)-yl)-1-(4-methoxyphenyl)ethanol] were 98%, 97% and 105%.
The like results for `Cc1ccc2c(c1)c1c(n2CC(O)c2ccncc2)CCN(C)CC1` (stereo not drawn) [Compound No. 43, 2-(2,3,4,5-tetrahydro-3,9-dimethylazepino[4,5-b]indol-6(1H)-yl)-1-(pyridin-4-yl)ethanol] were, in that order, 91%, 70% and 107%.
As for `CN1CCc2c(n(CC(=O)N3CCOCC3)c3ccc(Cl)cc23)CC1` [Compound No. 60, 2-(9-chloro-2,3,4,5-tetrahydro-3-methylazepino[4,5-b]indol-6(1H)-yl)-1-morpholinoethanone], the figures for the inhibition at 1 µM in experiment [1], in experiment [2] and in experiment [3] were -5%, -1% and 53%, respectively.
Taken in the same sequence, the figures for `CN1CCc2c(n(CCc3ccncc3)c3ccc(Cl)cc23)CC1` [Compound No. 5, 9-chloro-1,2,3,4,5,6-hexahydro-3-methyl-6-(2-(pyridin-4-yl)ethyl)azepino[4,5-b]indole] were 90%, 88% and 100%.
As for `Cc1ccc2c(c1)c1c(n2CCc2ccccn2)CCN(C)CC1` [Compound No. 9, 1,2,3,4,5,6-hexahydro-3,9-dimethyl-6-(2-(pyridin-2-yl)ethyl)azepino[4,5-b]indole], the values for the inhibition at 1 µM in experiment [1], in experiment [2] and in experiment [3] were 93%, 80% and 90%, respectively.
`CN1CCc2c(n(CCc3ccc(Cl)cc3)c3ccc(Cl)cc23)CC1` [Compound No. 30, 6-(4-chlorophenethyl)-9-chloro-1,2,3,4,5,6-hexahydro-3-methylazepino[4,5-b]indole]: the values for the inhibition at 1 µM in experiment [1], in experiment [2] and in experiment [3] were 98%, 89% and 100%, respectively.
The like results for `CN1CCc2c(n(CC(=O)Nc3ccc(F)cc3)c3ccc(Cl)cc23)CC1` [Compound No. 37, 2-(9-chloro-2,3,4,5-tetrahydro-3-methylazepino[4,5-b]indol-6(1H)-yl)-N-(4-fluorophenyl) acetamide] were, in that order, 85%, 14% and 70%.
